± gives the expanded uncertainty stated by the source.
Assay: xn = mol fraction of the nth substance listed
Conditions: 101 kPa, Liquid; for viscosity: Falling or rolling sphere viscometry; for mass density: Vibrating tube method

CCCCn1cc[n+](C)c1C.F[B-](F)(F)F [1-butyl-2,3-dimethylimidazolium tetrafluoroborate] + CC#N
Conditions	mass density [kg/m3]	viscosity [mPa·s]
298.15 K, x1 = 0.1118	919.74 ± 0.17	1.045 ± 0.013
298.15 K, x1 = 0.1536	957.71 ± 0.15	–
298.15 K, x1 = 0.2247	1008.5 ± 0.14	2.637 ± 0.034
298.15 K, x1 = 0.3784	1079.62 ± 0.18	8.933 ± 0.12
298.15 K, x1 = 0.4601	1104.79 ± 0.16	–
298.15 K, x1 = 0.5515	1127.21 ± 0.15	32.3 ± 0.41
298.15 K, x1 = 0.666	1149.45 ± 0.13	67.72 ± 0.96
298.15 K, x1 = 0.7581	1163.71 ± 0.12	143.9 ± 5.1
298.15 K, x1 = 0.8423	1174.52 ± 0.12	241.4 ± 13
298.15 K, x1 = 1	1193.19 ± 0.12	650 ± 56
303.15 K, x1 = 0.1118	915.06 ± 0.17	0.982 ± 0.012
303.15 K, x1 = 0.1536	953.22 ± 0.15	–
303.15 K, x1 = 0.2247	1004.26 ± 0.14	2.438 ± 0.031
303.15 K, x1 = 0.3784	1075.69 ± 0.19	7.746 ± 0.1
303.15 K, x1 = 0.4601	1100.98 ± 0.16	–
303.15 K, x1 = 0.5515	1123.51 ± 0.15	26.37 ± 0.33
303.15 K, x1 = 0.666	1145.88 ± 0.13	52.92 ± 0.56
303.15 K, x1 = 0.7581	1160.23 ± 0.12	108.2 ± 2.8
303.15 K, x1 = 0.8423	1171.09 ± 0.12	176.3 ± 7.5
303.15 K, x1 = 1	1189.8 ± 0.12	447 ± 33
313.15 K, x1 = 0.1118	905.7 ± 0.17	0.873 ± 0.011
313.15 K, x1 = 0.1536	944.25 ± 0.15	–
313.15 K, x1 = 0.2247	995.79 ± 0.14	2.071 ± 0.026
313.15 K, x1 = 0.3784	1067.89 ± 0.19	5.997 ± 0.077
313.15 K, x1 = 0.4601	1093.41 ± 0.16	–
313.15 K, x1 = 0.5515	1116.15 ± 0.14	18.33 ± 0.23
313.15 K, x1 = 0.666	1138.75 ± 0.12	34.34 ± 0.43
313.15 K, x1 = 0.7581	1153.24 ± 0.12	65.14 ± 0.85
313.15 K, x1 = 0.8423	1164.22 ± 0.11	102.2 ± 2.5
313.15 K, x1 = 1	1183.02 ± 0.11	232.9 ± 12
323.15 K, x1 = 0.1118	896.31 ± 0.18	0.783 ± 0.01
323.15 K, x1 = 0.1536	935.27 ± 0.15	–
323.15 K, x1 = 0.2247	987.34 ± 0.14	1.781 ± 0.022
323.15 K, x1 = 0.3784	1060.12 ± 0.19	4.784 ± 0.061
323.15 K, x1 = 0.4601	1085.88 ± 0.16	–
323.15 K, x1 = 0.5515	1108.85 ± 0.14	13.36 ± 0.17
323.15 K, x1 = 0.666	1131.67 ± 0.12	23.63 ± 0.3
323.15 K, x1 = 0.7581	1146.32 ± 0.11	42.26 ± 0.52
323.15 K, x1 = 0.8423	1157.4 ± 0.11	63.15 ± 0.79
323.15 K, x1 = 1	1176.38 ± 0.11	132.8 ± 4.4
333.15 K, x1 = 0.1118	886.87 ± 0.18	0.714 ± 0.009
333.15 K, x1 = 0.1536	926.27 ± 0.16	–
333.15 K, x1 = 0.2247	978.89 ± 0.14	1.551 ± 0.02
333.15 K, x1 = 0.3784	1052.37 ± 0.19	3.914 ± 0.05
333.15 K, x1 = 0.4601	1078.37 ± 0.16	–
333.15 K, x1 = 0.5515	1101.56 ± 0.14	10.11 ± 0.13
333.15 K, x1 = 0.666	1124.62 ± 0.12	17.06 ± 0.21
333.15 K, x1 = 0.7581	1139.41 ± 0.11	28.89 ± 0.36
333.15 K, x1 = 0.8423	1150.59 ± 0.11	41.76 ± 0.52
333.15 K, x1 = 1	1169.82 ± 0.11	81.53 ± 1.5
343.15 K, x1 = 0.1118	877.39 ± 0.18	0.572 ± 0.007
343.15 K, x1 = 0.1536	917.25 ± 0.16	–
343.15 K, x1 = 0.2247	970.44 ± 0.15	1.369 ± 0.017
343.15 K, x1 = 0.3784	1044.64 ± 0.18	3.264 ± 0.041
343.15 K, x1 = 0.4601	1070.89 ± 0.16	–
343.15 K, x1 = 0.5515	1094.31 ± 0.14	7.897 ± 0.099
343.15 K, x1 = 0.666	1117.6 ± 0.12	12.79 ± 0.16
343.15 K, x1 = 0.7581	1132.51 ± 0.11	20.7 ± 0.26
343.15 K, x1 = 0.8423	1143.79 ± 0.11	30 ± 0.37
343.15 K, x1 = 1	1163.26 ± 0.11	53.99 ± 0.56

CCCCn1cc[n+](C)c1C.F[B-](F)(F)F [1-butyl-2,3-dimethylimidazolium tetrafluoroborate] + C[S+](C)[O-]
Conditions	mass density [kg/m3]	viscosity [mPa·s]
298.15 K, x1 = 0.138	1128.27 ± 0.09	5.197 ± 0.064
298.15 K, x1 = 0.2292	1142.83 ± 0.1	9.384 ± 0.12
298.15 K, x1 = 0.3151	1153.4 ± 0.1	16.2 ± 0.2
298.15 K, x1 = 0.4079	1162.44 ± 0.11	28.31 ± 0.36
298.15 K, x1 = 0.5334	1172.17 ± 0.11	60.17 ± 0.72
298.15 K, x1 = 0.6374	1178.33 ± 0.11	108.3 ± 2.8
298.15 K, x1 = 0.7004	1181.74 ± 0.11	160.1 ± 6.3
298.15 K, x1 = 0.7952	1185.94 ± 0.11	–
298.15 K, x1 = 0.8785	1189.03 ± 0.12	370.4 ± 25
298.15 K, x1 = 1	1193.19 ± 0.12	650 ± 56
303.15 K, x1 = 0.138	1123.85 ± 0.09	4.594 ± 0.057
303.15 K, x1 = 0.2292	1138.65 ± 0.1	8.077 ± 0.1
303.15 K, x1 = 0.3151	1149.37 ± 0.1	13.58 ± 0.17
303.15 K, x1 = 0.4079	1158.58 ± 0.11	23.32 ± 0.29
303.15 K, x1 = 0.5334	1168.48 ± 0.11	47.09 ± 0.59
303.15 K, x1 = 0.6374	1174.75 ± 0.11	82.19 ± 1.5
303.15 K, x1 = 0.7004	1178.22 ± 0.11	119.4 ± 3.5
303.15 K, x1 = 0.7952	1182.45 ± 0.11	–
303.15 K, x1 = 0.8785	1185.53 ± 0.11	263.2 ± 15
303.15 K, x1 = 1	1189.8 ± 0.12	447 ± 33
313.15 K, x1 = 0.138	1115.07 ± 0.09	3.654 ± 0.045
313.15 K, x1 = 0.2292	1130.35 ± 0.09	6.142 ± 0.076
313.15 K, x1 = 0.3151	1141.4 ± 0.1	9.873 ± 0.12
313.15 K, x1 = 0.4079	1150.89 ± 0.1	15.99 ± 0.2
313.15 K, x1 = 0.5334	1161.12 ± 0.11	30.51 ± 0.38
313.15 K, x1 = 0.6374	1167.61 ± 0.11	50.32 ± 0.51
313.15 K, x1 = 0.7004	1171.2 ± 0.11	70.58 ± 1
313.15 K, x1 = 0.7952	1175.55 ± 0.11	–
313.15 K, x1 = 0.8785	1178.68 ± 0.11	144.9 ± 5.2
313.15 K, x1 = 1	1183.02 ± 0.11	232.9 ± 12
323.15 K, x1 = 0.138	1106.3 ± 0.08	2.981 ± 0.037
323.15 K, x1 = 0.2292	1122.07 ± 0.09	4.831 ± 0.06
323.15 K, x1 = 0.3151	1133.47 ± 0.1	7.481 ± 0.093
323.15 K, x1 = 0.4079	1143.24 ± 0.1	11.64 ± 0.15
323.15 K, x1 = 0.5334	1153.77 ± 0.1	20.96 ± 0.26
323.15 K, x1 = 0.6374	1160.48 ± 0.1	33.05 ± 0.41
323.15 K, x1 = 0.7004	1164.2 ± 0.11	44.88 ± 0.56
323.15 K, x1 = 0.7952	1168.71 ± 0.11	–
323.15 K, x1 = 0.8785	1171.96 ± 0.11	86.55 ± 1.7
323.15 K, x1 = 1	1176.38 ± 0.11	132.8 ± 4.4
333.15 K, x1 = 0.138	1097.56 ± 0.08	2.49 ± 0.031
333.15 K, x1 = 0.2292	1113.83 ± 0.09	3.906 ± 0.048
333.15 K, x1 = 0.3151	1125.56 ± 0.09	5.851 ± 0.072
333.15 K, x1 = 0.4079	1135.62 ± 0.1	8.806 ± 0.11
333.15 K, x1 = 0.5334	1146.46 ± 0.1	15.18 ± 0.19
333.15 K, x1 = 0.6374	1153.38 ± 0.1	22.96 ± 0.28
333.15 K, x1 = 0.7004	1157.22 ± 0.1	30.3 ± 0.37
333.15 K, x1 = 0.7952	1161.88 ± 0.1	–
333.15 K, x1 = 0.8785	1165.23 ± 0.11	55.64 ± 0.59
333.15 K, x1 = 1	1169.82 ± 0.11	81.53 ± 1.5
343.15 K, x1 = 0.138	1088.84 ± 0.08	2.115 ± 0.026
343.15 K, x1 = 0.2292	1105.61 ± 0.09	3.23 ± 0.04
343.15 K, x1 = 0.3151	1117.7 ± 0.09	4.708 ± 0.058
343.15 K, x1 = 0.4079	1128.03 ± 0.1	6.868 ± 0.085
343.15 K, x1 = 0.5334	1139.19 ± 0.1	11.46 ± 0.14
343.15 K, x1 = 0.6374	1146.31 ± 0.1	16.7 ± 0.21
343.15 K, x1 = 0.7004	1150.26 ± 0.1	21.53 ± 0.27
343.15 K, x1 = 0.7952	1155.06 ± 0.1	–
343.15 K, x1 = 0.8785	1158.52 ± 0.1	37.74 ± 0.46
343.15 K, x1 = 1	1163.26 ± 0.11	53.99 ± 0.56
353.15 K, x1 = 0.138	1080.12 ± 0.08	1.826 ± 0.022
353.15 K, x1 = 0.2292	1097.41 ± 0.08	2.724 ± 0.034
353.15 K, x1 = 0.3151	1109.86 ± 0.09	3.873 ± 0.048
353.15 K, x1 = 0.4079	1120.49 ± 0.09	5.501 ± 0.068
353.15 K, x1 = 0.5334	1131.96 ± 0.1	8.897 ± 0.11
353.15 K, x1 = 0.6374	1139.27 ± 0.1	12.73 ± 0.16
353.15 K, x1 = 0.7004	1143.34 ± 0.1	16.03 ± 0.2
353.15 K, x1 = 0.7952	1148.27 ± 0.1	–
353.15 K, x1 = 0.8785	1151.83 ± 0.1	26.75 ± 0.33
353.15 K, x1 = 1	1156.71 ± 0.1	37.13 ± 0.46

Reference: the NIST ThermoML archive (doi:10.1021/je3007474)
